Tested on: DA neurons in the rat SN
Test: 8-oxo-dG immunostaining in the SN of 6-OHDA-treated rats
Type: in vivo
Conditions: striatal injection
Procedure: The experiments were carried out on rats, in accordance with the NIH Guide for the Care and Use of Laboratory Animals. All procedures were approved by the local Animal Care and Use Committee. Female Sprague Dawley (SD) rats (Charles River; 8-weeks-old at the time of the beginning of AAV expression or 6-OHDA treatment, 2 or 3 per cage) were maintained in a temperature/humidity-controlled environment under a 12 h light/dark cycle with free access to food and water. All rats were respectively allocated into […], Nox1 shRNA/AAV, T17N Rac1/AAV, and scramble (scb) shRNA/AAV or empty vector/AAV as control groups. Rats were deeply anesthetized (ketamine and xylazine mixture 30 mg/kg, i.p.) and placed in a rat stereotaxic apparatus, a site in the right substantia nigra (SN) [coordinate: anteroposterior (AP), −5.3 mm; mediolateral (ML), +2.0 mm; dorsoventral (DV), −5.8 mm] was selected to inject scb shRNA/AAV (n=8), Nox1 shRNA/AAV (n=16), T17N Rac1/AAV (n=16), and empty vector/AAV (n=28), respectively, according to the grouping. […]
Rats were deeply anesthetized with sodium pentobarbital (120 mg/kg) and transcardially perfused with saline containing 0.5% sodium nitrite and 10 U/ml heparin sulfate, followed by 4% cold formaldehyde generated from paraformaldehyde in 0.1 M PBS (pH 7.2). […] Mounted slices were evaluated on light microscope.

NCCc1cc(O)c(O)cc1O [6-OHDA, 6-hydroxydopamine]
DNA oxidative damage (8-oxo-dG immunoreactivity in the nucleus) caused by toxin: increased DNA oxidative damage

Reference: patent publication US9394544B2, “Ameliorating oxidative stress in neurodegenerative disease via Nox1 targeting” (University of Central Florida Research Foundation, Inc., priority 2013, dated 2016)
